This note sets out measurements from US9914731B2, “Pyrazolo[1,5-a]pyridine derivatives and methods of their use” (Ignyta, Inc., priority 2013, dated 2018).

Each structure is given as a SMILES string.

The first experiment deals with recombinant human baculovirus-expressed cMET (Homo sapiens (Human), UniProt P08581). As to the kind of experiment: c-MET kinase assay (HTRF KinEASE). It counts as biochemical. The conditions noted are these: average of two or more determinations; read-out: c-MET IC50. (In TR-FRET formats the signal depends on donor and acceptor labels being close together.)
By IC50 is commonly meant the concentration that inhibits the measured activity by half. With `CCn1cc(C(=O)Nc2ccc(Oc3cc(-c4cn(C)cn4)cn4nccc34)c(C(F)(F)F)c2)c(=O)n(-c2ccc(F)cc2)c1=O` [Example 125, 1-Ethyl-3-(4-fluoro-phenyl)-2,4-dioxo-1,2,3,4-tetrahydro-pyrimidine-5-carboxylic acid {4-[6-(1-methyl-1H-imidazol-4-yl)-pyrazolo[1,5-a]pyridin-4-yloxy]-3-trifluoromethyl-phenyl}-amide], the half-inhibitory concentration (IC50) is less than 10 nM.

Regarding `O=C(Nc1ccc(Oc2cc(N3CCCC3=O)cn3nccc23)c(F)c1)c1cccn(-c2ccc(F)cc2)c1=O` [Example 76, 1-(4-Fluoro-phenyl)-2-oxo-1,2-dihydro-pyridine-3-carboxylic acid{3-fluoro-4-[6-(2-oxo-pyrrolidin-1-yl)-pyrazolo[1,5-a]pyridin-4-yloxy]-phenyl}-amide], the half-maximal inhibitory concentration (IC50) is less than 10 nM.

Turning to `O=C(Nc1ccc(Oc2cc(-c3cnsc3)cn3nccc23)c(F)c1)c1cccn(-c2ccc(F)cc2)c1=O` [Example 53, 1-(4-Fluoro-phenyl)-2-oxo-1,2-dihydro-pyridine-3-carboxylic acid[3-fluoro-4-(6-isothiazol-4-yl-pyrazolo[1,5-a]pyridin-4-yloxy)-phenyl]-amide], the IC50 is less than 10 nM. The same measure, in the same setting: next, `O=C(Nc1ccc(Oc2cc(C3CCOCC3)cn3nccc23)c(F)c1)c1cccn(-c2ccc(F)cc2)c1=O` [Example 47, 1-(4-Fluoro-phenyl)-2-oxo-1,2-dihydro-pyridine-3-carboxylic acid{3-fluoro-4-[6-(tetrahydro-pyran-4-yl)-pyrazolo[1,5-a]pyridin-4-yloxy]-phenyl}-amide]: less than 10 nM; `O=C(Nc1ccc(F)cc1)C1(C(=O)Nc2ccc(Oc3cc(N4CCOCC4)cn4nccc34)c(F)c2)CC1` [Example 63, Cyclopropane-1,1-dicarboxylic acid[3-fluoro-4-(6-morpholin-4-yl-pyrazolo[1,5-a]pyridin-4-yloxy)-phenyl]-amide(4-fluoro-phenyl)-amide]: 10 to 100 nM. Same read-out and setting: under `CC(C)n1cc(C(=O)Nc2ccc(Oc3cc(N4CCCC4=O)cn4nccc34)c(F)c2)c(=O)n(-c2ccc(F)cc2)c1=O` [Example 78, 3-(4-Fluoro-phenyl)-1-isopropyl-2,4-dioxo-1,2,3,4-tetrahydro-pyrimidine-5-carboxylic acid {3-fluoro-4-[6-(2-oxo-pyrrolidin-1-yl)-pyrazolo[1,5-a]pyridin-4-yloxy]-phenyl}-amide] stands less than 10 nM; under `CCn1cc(C(=O)Nc2ccc(Oc3cc(-c4cn(C)cn4)cn4nccc34)c(O)c2)c(=O)n(-c2ccc(F)cc2)c1=O` [Example 120, 1-Ethyl-3-(4-fluoro-phenyl)-2,4-dioxo-1,2,3,4-tetrahydro-pyrimidine-5-carboxylic acid{3-hydroxy-4-[6-(1-methyl-1H-imidazol-4-yl)-pyrazolo[1,5-a]pyridin-4-yloxy]-phenyl}-amide], 10 to 100 nM. Still for that read-out and setting: under `O=C(Nc1ccc(Oc2cccn3nccc23)c(F)c1)c1cccn(Cc2ccc(F)cc2)c1=O` [Example 8, 1-(4-Fluoro-benzyl)-2-oxo-1,2-dihydro-pyridine-3-carboxylic acid [3-fluoro-4-(pyrazolo[1,5-a]pyridin-4-yloxy)-phenyl]-amide] stands 101 to 1000 nM; under `CCn1cc(C(=O)Nc2ccc(Oc3cc(-c4cnco4)cn4nccc34)c(F)c2)c(=O)n(-c2ccc(F)cc2)c1=O` [Example 52, 1-Ethyl-3-(4-fluoro-phenyl)-2,4-dioxo-1,2,3,4-tetrahydro-pyrimidine-5-carboxylic acid[3-fluoro-4-(6-oxazol-5-yl-pyrazolo[1,5-a]pyridin-4-yloxy)-phenyl]-amide], less than 10 nM; under `Cn1cnc(-c2cc(Oc3ccc(Nc4ncccn4)cc3F)c3ccnn3c2)c1` [Example 152, {3-Fluoro-4-[6-(1-methyl-1H-imidazol-4-yl)-pyrazolo[1,5-a]pyridin-4-yloxy]-phenyl}-pyrimidin-2-yl-amine], 1000 to 10000 nM. `CCn1cc(C(=O)Nc2ccc(Oc3cc(-c4ncccn4)cn4nccc34)c(F)c2)c(=O)n(-c2ccc(F)cc2)c1=O` [Example 132, 1-Ethyl-3-(4-fluoro-phenyl)-2,4-dioxo-1,2,3,4-tetrahydro-pyrimidine-5-carboxylic acid [3-fluoro-4-(6-pyrimidin-2-yl-pyrazolo[1,5-a]pyridin-4-yloxy)-phenyl]-amide]: the IC50 is 10 to 100 nM. As to `CCn1cc(C(=O)Nc2ccc(Oc3cc(-c4cn(C)cn4)cn4nccc34)c(C)c2)c(=O)n(-c2ccc(F)cc2)c1=O` [Example 109, 1-Ethyl-3-(4-fluoro-phenyl)-2,4-dioxo-1,2,3,4-tetrahydro-pyrimidine-5-carboxylic acid{3-methyl-4-[6-(1-methyl-1H-imidazol-4-yl)-pyrazolo[1,5-a]pyridin-4-yloxy]-phenyl}-amide], the IC50 was less than 10 nM. On to `CC(C)n1cc(C(=O)Nc2ccc(Oc3cc(-c4cscn4)cn4nccc34)c(F)c2)c(=O)n(-c2ccc(F)cc2)c1=O` [Example 106, 3-(4-Fluoro-phenyl)-1-isopropyl-2,4-dioxo-1,2,3,4-tetrahydro-pyrimidine-5-carboxylic acid[3-fluoro-4-(6-thiazol-4-yl-pyrazolo[1,5-a]pyridin-4-yloxy)-phenyl]-amide], for which the IC50 is less than 10 nM. On the same count and under the same terms, under `CC(C)n1cc(C(=O)Nc2ccc(Oc3cc(-c4cn(C)cn4)cn4nccc34)c(C(F)(F)F)c2)c(=O)n(-c2ccc(F)cc2)c1=O` [Example 126, 3-(4-Fluoro-phenyl)-1-isopropyl-2,4-dioxo-1,2,3,4-tetrahydro-pyrimidine-5-carboxylic acid{4-[6-(1-methyl-1H-imidazol-4-yl)-pyrazolo[1,5-a]pyridin-4-yloxy]-3-trifluoromethyl-phenyl}-amide] stands 10 to 100 nM; under `CC(C)n1cc(C(=O)Nc2ccc(Oc3cc(Nc4ccccn4)cn4nccc34)c(F)c2)c(=O)n(-c2ccc(F)cc2)c1=O` [Example 87, 3-(4-Fluoro-phenyl)-1-isopropyl-2,4-dioxo-1,2,3,4-tetrahydro-pyrimidine-5-carboxylic acid{3-fluoro-4-[6-(pyridin-2-ylamino)-pyrazolo[1,5-a]pyridin-4-yloxy]-phenyl}-amide], 10 to 100 nM; under `CCn1cc(C(=O)Nc2ccc(Oc3cc(NC(=O)N(C)C)cn4nccc34)c(F)c2)c(=O)n(-c2ccc(F)cc2)c1=O` [Example 146, 1-Ethyl-3-(4-fluoro-phenyl)-2,4-dioxo-1,2,3,4-tetrahydro-pyrimidine-5-carboxylic acid {4-[6-(3,3-dimethyl-urea)-pyrazolo[1,5-a]pyridin-4-yloxy]-3-fluoro-phenyl}-amide], less than 10 nM.

Regarding `CCn1cc(C(=O)Nc2ccc(Oc3cc(-c4cn(C)cn4)cn4nccc34)nc2)c(=O)n(-c2ccc(F)cc2)c1=O` [Example 115, 1-Ethyl-3-(4-fluoro-phenyl)-2,4-dioxo-1,2,3,4-tetrahydro-pyrimidine-5-carboxylic acid{6-[6-(1-methyl-1H-imidazol-4-yl)-pyrazolo[1,5-a]pyridin-4-yloxy]-pyridin-3-yl}-amide], the IC50 was less than 10 nM.

Regarding `O=C(Nc1ccc(F)cc1)C1(C(=O)Nc2ccc(Oc3cccn4nccc34)c(F)c2)CC1` [Example 5, Cyclopropane-1,1-dicarboxylic acid (4-fluoro-phenyl)-amide [3-fluoro-4-(pyrazolo[1,5-a]pyridin-4-yloxy)-phenyl]-amide], the half-maximal inhibitory concentration (IC50) is less than 10 nM. On the same count and under the same terms, next, `CC(C)n1cc(C(=O)Nc2ccc(Oc3cc(N4CCC(F)(F)CC4)cn4nccc34)c(F)c2)c(=O)n(-c2ccc(F)cc2)c1=O` [Example 69, 3-(4-Fluoro-phenyl)-1-isopropyl-2,4-dioxo-1,2,3,4-tetrahydro-pyrimidine-5-carboxylic acid{4-[6-(4,4-difluoro-piperidin-1-yl)-pyrazolo[1,5-a]pyridin-4-yloxy]-3-fluoro-phenyl}-amide]: 10 to 100 nM; `Cc1c(Nc2cc(Oc3ccc(NC(=O)c4cccn(-c5ccc(F)cc5)c4=O)cc3F)c3ccnn3c2)cnn1C` [Example 82, 1-(4-Fluoro-phenyl)-2-oxo-1,2-dihydro-pyridine-3-carboxylic acid{4-[6-(1,5-dimethyl-1H-pyrazol-4-ylamino)-pyrazolo[1,5-a]pyridin-4-yloxy]-3-fluoro-phenyl}-amide]: less than 10 nM. For the compound `CC(C)n1cc(C(=O)Nc2ccc(Oc3cc(-c4cnccn4)cn4nccc34)c(F)c2)c(=O)n(-c2ccc(F)cc2)c1=O` [Example 135, 3-(4-Fluoro-phenyl)-1-isopropyl-2,4-dioxo-1,2,3,4-tetrahydro-pyrimidine-5-carboxylic acid[3-fluoro-4-(6-pyrazin-2-yl-pyrazolo[1,5-a]pyridin-4-yloxy)-phenyl]-amide], the half-inhibitory concentration (IC50) lay in the range of 10 to 100 nM. On the same count and under the same terms, next, `CC(C)n1cc(C(=O)Nc2ccc(Oc3cc(N4CCC(F)(F)C4)cn4nccc34)c(F)c2)c(=O)n(-c2ccc(F)cc2)c1=O` [Example 71, 3-(4-Fluoro-phenyl)-1-isopropyl-2,4-dioxo-1,2,3,4-tetrahydro-pyrimidine-5-carboxylic acid{4-[6-(3,3-difluoro-pyrrolidin-1-yl)-pyrazolo[1,5-a]pyridin-4-yloxy]-3-fluoro-phenyl}-amide]: 10 to 100 nM.

As for `CCn1cc(C(=O)Nc2ccc(Oc3cc(C(=O)N(C)C)cn4nccc34)c(F)c2)c(=O)n(-c2ccc(F)cc2)c1=O` [Example 139, 4-(4-{[1-Ethyl-3-(4-fluoro-phenyl)-2,4-dioxo-1,2,3,4-tetrahydro-pyrimidine-5-carbonyl]-amino}-2-fluoro-phenoxy)-pyrazolo[1,5-a]pyridine-6-carboxylic acid dimethylamide], the IC50 is less than 10 nM.

The same experiment, now with this note: read-out: c-MET IC50.
`CC(C)n1cc(C(=O)Nc2ccc(Oc3cc(-c4ncco4)cn4nccc34)c(F)c2)c(=O)n(-c2ccc(F)cc2)c1=O` [Example 99, 3-(4-Fluoro-phenyl)-1-isopropyl-2,4-dioxo-1,2,3,4-tetrahydro-pyrimidine-5-carboxylic acid[3-fluoro-4-(6-oxazol-2-yl-pyrazolo[1,5-a]pyridin-4-yloxy)-phenyl]-amide]: the IC50 was less than 10 nM. In the case of `COc1ccc(-c2cc(Oc3ccc(NC(=O)c4cccn(-c5ccc(F)cc5)c4=O)cc3F)c3ccnn3c2)cn1` [Example 35, 1-(4-Fluoro-phenyl)-2-oxo-1,2-dihydro-pyridine-3-carboxylic acid {3-fluoro-4-[6-(6-methoxy-pyridin-3-yl)-pyrazolo[1,5-a]pyridin-4-yloxy]-phenyl}-amide], the 50% inhibitory concentration (IC50) is less than 10 nM.
